Source: patent US8952024B2, “Herbicidal pyrimidone derivatives” (E I du Pont de Nemours and Company, priority 2009, dated 2015)

Columns and labels:
Type in all cases: in vivo
[1] = system: barnyardgrass (Echinochloa crus-galli); assay: Test A pre-/postemergence plant response
Outline: (§1)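 Formulated test chemicals (non-phytotoxic solvent, surfactant) were sprayed onto soil right after planting and simultaneously onto young plants at one to two leaves, 2 to 10 cm tall. Plants stayed in the greenhouse about ten days; injury was then visually scored against untreated controls, from 0 (no effect) to 100 (complete control).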

corn (Zea mays) = assay: Test A pre-/postemergence plant response
Outline: as §1

[2] = system: giant foxtail (Setaria faberii); assay: Test A pre-/postemergence plant response
Outline: as §1

[3] = system: large crabgrass (Digitaria sanguinalis); assay: Test A pre-/postemergence plant response
Outline: as §1

[4] = system: morningglory (Ipomoea spp.); assay: Test A pre-/postemergence plant response
Outline: as §1

[5] = system: pigweed (Amaranthus retroflexus); assay: Test A pre-/postemergence plant response
Outline: as §1

[6] = system: velvetleaf (Abutilon theophrasti); assay: Test A pre-/postemergence plant response
Outline: as §1

[7] = system: wheat (Triticum aestivum); assay: Test A pre-/postemergence plant response
Outline: as §1

[8] = system: barnyardgrass (Echinochloa crus-galli); assay: Test B flooded paddy test; settings: for Plant response rating, Flood, Barnyardgrass: 250 g ai/ha, flooded paddy test, visual rating on 0 to 100 scale (0 no effect, 100 complete control) after 13 to 15 days; for Plant response rating, Barnyardgrass: Flood (flooded paddy test), 13 to 15 days
Outline: (§2)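 Greenhouse-held for 13 to 15 days, treated pots were compared visually with controls and scored 0–100 (0, no effect). Treatment had been made into paddy water kept at 3 cm above the soil, with plants at the 2-leaf stage.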

[9] = system: ducksalad (Heteranthera limosa); assay: Test B flooded paddy test; settings: for Plant response rating, Flood, Ducksalad: 250 g ai/ha, flooded paddy test, visual rating on 0 to 100 scale (0 no effect, 100 complete control) after 13 to 15 days; for Plant response rating, Ducksalad: Flood (flooded paddy test), 13 to 15 days
Outline: as §2

rice (Oryza sativa) = assay: Test B flooded paddy test; settings: for Plant response rating, Flood, Rice: 250 g ai/ha, flooded paddy test, visual rating on 0 to 100 scale (0 no effect, 100 complete control) after 13 to 15 days; for Plant response rating, Rice: Flood (flooded paddy test), 13 to 15 days
Outline: as §2

[10] = system: umbrella sedge (Cyperus difformis); assay: Test B flooded paddy test; settings: for Plant response rating, Flood, Sedge, Umbrella: 250 g ai/ha, flooded paddy test, visual rating on 0 to 100 scale (0 no effect, 100 complete control) after 13 to 15 days; for Plant response rating, Sedge, Umbrella: Flood (flooded paddy test), 13 to 15 days
Outline: as §2

[11] = Postemergence, 125 g ai/ha, visual injury, 0 to 100 scale (0 no effect, 100 complete control), approx. ten days
[12] = Postemergence, 500 g ai/ha, 0 to 100 scale, 0 = no effect, 100 = complete control, approx. ten days
[13] = Preemergence, 125 g ai/ha, 0 to 100 scale, 0 = no effect, 100 = complete control
[14] = Preemergence, 500 g ai/ha, visual injury, 0 to 100 scale (0 no effect, 100 complete control), approx. ten days
[15] = 31 g ai/ha, scale of 0 to 100 where 0 is no effect and 100 is complete control
[16] = 62 g ai/ha, scale of 0 to 100 where 0 is no effect and 100 is complete control
[17] = 125 g ai/ha, scale 0 to 100, 0 is no effect, 100 is complete control
[18] = 62 g ai/ha, scale 0 to 100, 0 is no effect, 100 is complete control
[19] = Postemergence, 125 g ai/ha, 0 to 100 scale where 0 is no effect and 100 is complete control

CC(C)c1ncc(C(=O)C2=C(O)CCCC2=O)c(=O)n1-c1ccccc1 [Compound 60]
90: Plant response rating, Barnyardgrass [1, 12] | Plant response rating, Barnyardgrass [1, 14] | Plant response rating, Foxtail, Giant [2, 12] | Plant response rating, Foxtail, Giant [2, 14] | Crabgrass, Large plant response rating [3, 11] | Plant response rating, Crabgrass, Large [3, 13] | Plant response rating, Morningglory [4, 12] | Plant response rating, Pigweed [5, 13]
100: Plant response rating, Crabgrass, Large [3, 12] | Plant response rating, Crabgrass, Large [3, 14] | Pigweed plant response rating [5, 11] | Plant response rating, Pigweed [5, 12] | Plant response rating, Pigweed [5, 14] | Velvetleaf plant response rating [6, 11] | Plant response rating, Velvetleaf [6, 12] | Plant response rating, Velvetleaf [6, 14]
80: Foxtail, Giant plant response rating [2, 11] | Plant response rating, Morningglory [4, 14] | Plant response rating, Velvetleaf [6, 13]
0: Corn plant response rating (corn (Zea mays); [11]) | Plant response rating, Corn (corn (Zea mays); [13]) | Plant response rating, Wheat [7, 13] | Plant response rating, Barnyardgrass [8, 15] | Plant response rating, Barnyardgrass [8, 16] | Plant response rating, Ducksalad [9, 15] | Plant response rating, Ducksalad [9, 16] | Plant response rating, Rice (rice (Oryza sativa); [15]) | Plant response rating, Rice (rice (Oryza sativa); [16]) | Plant response rating, Rice (rice (Oryza sativa); [17]) | Plant response rating, Sedge, Umbrella [10, 15]
60: Barnyardgrass plant response rating [1, 11] | Plant response rating, Barnyardgrass [1, 13] | Plant response rating, Foxtail, Giant [2, 13] | Morningglory plant response rating [4, 11] | Plant response rating, Flood, Ducksalad [9]
75: Plant response rating, Sedge, Umbrella [10, 17]
15: Plant response rating, Flood, Rice (rice (Oryza sativa))
20: Wheat plant response rating [7, 11]
85: Plant response rating, Flood, Sedge, Umbrella [10]
40: Plant response rating, Wheat [7, 14] | Plant response rating, Flood, Barnyardgrass [8] | Plant response rating, Ducksalad [9, 17]
10: Plant response rating, Corn (corn (Zea mays); [12]) | Plant response rating, Corn (corn (Zea mays); [14])
30: Plant response rating, Barnyardgrass [8, 17] | Plant response rating, Sedge, Umbrella [10, 16]
50: Plant response rating, Wheat [7, 12]

Cc1ccc(-n2c(-c3ccccc3)ncc(C(=O)C3=C(O)CCCC3=O)c2=O)c(Cl)c1 [Compound 41]
80: Plant response rating, Barnyardgrass [1, 14] | Plant response rating, Foxtail, Giant [2, 12] | Plant response rating, Crabgrass, Large [3, 14] | Plant response rating, Velvetleaf [6, 14] | Plant response rating, Flood, Sedge, Umbrella [10]
0: Plant response rating, Barnyardgrass [1, 13] | Corn plant response rating (corn (Zea mays); [11]) | Plant response rating, Corn (corn (Zea mays); [13]) | Plant response rating, Corn (corn (Zea mays); [14]) | Plant response rating, Morningglory [4, 13] | Wheat plant response rating [7, 11] | Plant response rating, Wheat [7, 12] | Plant response rating, Wheat [7, 13] | Plant response rating, Wheat [7, 14] | Plant response rating, Barnyardgrass [8, 18] | Plant response rating, Flood, Rice (rice (Oryza sativa)) | Plant response rating, Rice (rice (Oryza sativa); [18])
50: Barnyardgrass plant response rating [1, 11]
90: Plant response rating, Barnyardgrass [1, 12] | Plant response rating, Pigweed [5, 13] | Plant response rating, Pigweed [5, 14]
30: Plant response rating, Foxtail, Giant [2, 14] | Plant response rating, Velvetleaf [6, 13] | Plant response rating, Flood, Barnyardgrass [8]
70: Plant response rating, Crabgrass, Large [3, 12] | Plant response rating, Morningglory [4, 12] | Plant response rating, Ducksalad [9, 18] | Plant response rating, Sedge, Umbrella [10, 18]
10: Plant response rating, Corn (corn (Zea mays); [12]) | Plant response rating, Foxtail, Giant [2, 13] | Morningglory plant response rating [4, 11]
100: Pigweed plant response rating [5, 11] | Plant response rating, Pigweed [5, 12] | Velvetleaf plant response rating [6, 11] | Plant response rating, Velvetleaf [6, 12]
75: Plant response rating, Flood, Ducksalad [9]
20: Foxtail, Giant plant response rating [2, 11] | Crabgrass, Large plant response rating [3, 11] | Plant response rating, Crabgrass, Large [3, 13] | Plant response rating, Morningglory [4, 14]

CCCn1c(-c2ccn(C)n2)ncc(C(=O)C2=C(O)CCCC2=O)c1=O [Compound 135]
80: Plant response rating, Pigweed [5, 19] | Plant response rating, Pigweed [5, 14]
70: Plant response rating, Crabgrass, Large [3, 12] | Plant response rating, Morningglory [4, 19] | Plant response rating, Velvetleaf [6, 14]
20: Plant response rating, Morningglory [4, 13]
0: Plant response rating, Barnyardgrass [1, 13] | Plant response rating, Barnyardgrass [1, 14] | Plant response rating, Corn (corn (Zea mays); [19]) | Plant response rating, Corn (corn (Zea mays); [12]) | Plant response rating, Corn (corn (Zea mays); [13]) | Plant response rating, Corn (corn (Zea mays); [14]) | Plant response rating, Foxtail, Giant [2, 19] | Plant response rating, Foxtail, Giant [2, 12] | Plant response rating, Foxtail, Giant [2, 13] | Plant response rating, Foxtail, Giant [2, 14] | Plant response rating, Crabgrass, Large [3, 13] | Plant response rating, Wheat [7, 19] | Plant response rating, Wheat [7, 12] | Plant response rating, Wheat [7, 13] | Plant response rating, Wheat [7, 14] | Plant response rating, Flood, Barnyardgrass [8] | Plant response rating, Barnyardgrass [8, 16] | Plant response rating, Flood, Rice (rice (Oryza sativa)) | Plant response rating, Rice (rice (Oryza sativa); [16]) | Plant response rating, Flood, Sedge, Umbrella [10] | Plant response rating, Sedge, Umbrella [10, 16]
50: Plant response rating, Morningglory [4, 14]
10: Plant response rating, Barnyardgrass [1, 19]
90: Plant response rating, Morningglory [4, 12] | Plant response rating, Pigweed [5, 12]
30: Plant response rating, Barnyardgrass [1, 12] | Plant response rating, Ducksalad [9, 16]
40: Plant response rating, Crabgrass, Large [3, 19] | Plant response rating, Crabgrass, Large [3, 14] | Plant response rating, Pigweed [5, 13] | Plant response rating, Velvetleaf [6, 13] | Plant response rating, Flood, Ducksalad [9]
100: Plant response rating, Velvetleaf [6, 19] | Plant response rating, Velvetleaf [6, 12]
